# Assays:
# [1] = in vitro; format: cell-based; details: human
# Experimental: (§1) Antiviral Activity Black 96-well clear-bottom microtiter plates (Corning, Amsterdam, The Netherlands) were filled in duplicate using a customized robot system with serial 4-fold dilutions of compound in a final volume of 50 μl culture medium [RPMI medium without phenol red, 10% FBS, 0.04% gentamycin (50 mg/ml) and 0.5% DMSO]. Then, 100 μl of a HeLa cell suspension (5×10^4 cells/ml) in culture medium was added to each well followed by the addition of 50 μl rgRSV224 (MOI=0.02) virus in culture medium using a multidrop dispenser (Thermo Scientific, Erembodegem, Belgium). rgRSV224 virus is an engineered virus that includes an additional GFP gene (Hallak et al, 2000) and was in-licensed from the NIH (Bethesda, Md., USA). Medium, virus- and mock-infected controls were included in each test. Cells were incubated at 37° C. in a 5% CO2 atmosphere. Three days post-virus exposure, viral replication was quantified by measuring GFP expression in the cells by a MSM laser microscope (Tibotec, Beerse, Belgium). The EC50 was defined as the 50% inhibitory concentration for GFP expression. In parallel, compounds were incubated for three days in a set of white 96-well microtiter plates (Corning) and the cytotoxicity of compounds in HeLa cells was determined by measuring the ATP content of the cells using the ATPlite kit (PerkinElmer, Zaventem, Belgium) according to the manufacturer's instructions. The CC50 was defined as the 50% concentration for cytotoxicity.
# [2] = system: rgRSV224 virus; assay: Antiviral activity: rgRSV224 replication (GFP expression) in HeLa cells; format: cell-based; details: human respiratory syncytial virus, 72 h, read-out: WT activity EC50
# Experimental: as §1
compound,measurement,setting,value
"CS(=O)(=O)CCCn1c(Cn2c(=O)n(C3CC3)c3c(Cl)cncc32)nc2cc(Cl)ccc21 [Compound P1, 7-Chloro-3-((5-chloro-1-(3-(methylsulfonyl)-propyl)-1H-benzo[d]imidazol-2-yl)methyl)-1-cyclopropyl-1H-imidazo[4,5-c]pyridin-2(3H)-one]",CC50 at 3 days,[1],> 100000 nM
same,EC50,[2],1.7 nM
"CS(=O)(=O)CCCn1c(Cn2c(=O)n(C3CC3)c3c(Cl)cccc32)nc2cc(Cl)ccc21 [Compound P2, 4-Chloro-1-((5-chloro-1-(3-(methylsulfonyl)propyl)-1H-benzo[d]imidazol-2-yl)methyl)-3-cyclopropyl-1H-benzo[d]imidazol-2(3H)-one]",CC50 at 3 days,[1],> 100000 nM
same,EC50,[2],7.4 nM
"Cc1cccc2c1n(C1CC1)c(=O)n2Cc1nc2cc(Cl)ccc2n1CCCS(C)(=O)=O [Compound P3, 1-((5-Chloro-1-(3-(methylsulfonyl)propyl)-1H-benzo[d]imidazol-2-yl)-methyl)-3-cyclopropyl-4-methyl-1H-benzo[d]imidazol-2(3H)-one]",CC50 at 3 days,[1],64600 nM
same,EC50,[2],5.1 nM
"Cc1cncc2c1n(C1CC1)c(=O)n2Cc1nc2cc(Cl)ccc2n1CCCS(C)(=O)=O [Compound P4, 3-((5-chloro-1-(3-(methylsulfonyl)propyl)-1H-benzo[d]imidazol-2-yl)methyl)-1-cyclopropyl-7-methyl-1H-imidazo[4,5-c]pyridin-2(3H)-one]",CC50 at 3 days,[1],> 100000 nM
same,EC50,[2],1.4 nM
"CS(=O)(=O)CCCn1c(Cn2c(=O)n(C3CC3)c3c(C(F)(F)F)cccc32)nc2cc(Cl)ccc21 [Compound P5, 1-((5-chloro-1-(3-(methylsulfonyl)propyl)-1H-benzo[d]imidazol-2-yl)-methyl)-3-cyclopropyl-4-(trifluoromethyl)-1H-benzo[d]imidazol-2(3H)-one]",CC50 at 3 days,[1],> 100000 nM
same,EC50,[2],28 nM
same,melting point,,210.18 °C
"CS(=O)(=O)CCCn1c(Cn2c(=O)n(CC(F)(F)F)c3c(Cl)cncc32)nc2cc(Cl)ccc21 [Compound P6, 7-chloro-3-((5-chloro-1-(3-(methylsulfonyl)propyl)-1H-benzo[d]imidazol-2-yl)methyl)-1-(2,2,2-trifluoroethyl)-1H-imidazo[4,5-c]pyridin-2(3H)-one]",CC50 at 3 days,[1],> 100000 nM
same,EC50,[2],9 nM
same,melting point,,232.82 °C
"CS(=O)(=O)CCCn1c(Cn2c(=O)n(CC(F)(F)F)c3c(Cl)cccc32)nc2cc(Cl)ccc21 [Compound P7, 4-chloro-1-((5-chloro-1-(3-(methylsulfonyl)propyl)-1H-benzo[d]imidazol-2-yl)methyl)-3-(2,2,2-trifluoroethyl)-1H-benzo[d]imidazol-2(3H)-one]",CC50 at 3 days,[1],69000 nM
same,EC50,[2],12 nM
